“Also recorded” adds a separate entry of the source.
Assays:
[1] = target: T1, FXR (Mus musculus, UniProt Q60641); assay: PGL4-Shp-TK luciferase assay in primary hepatocytes; type: cell-based; conditions: primary hepatocytes from Fxr^+/+ mice; 100 μM TCA
T1 construct: Primary hepatocytes from Fxr^+/+ and Fxr^−/− mice were transfected with PGL4-Shp-TK firefly luciferase construct and the control plasmid phRL-SV40; endogenous in cells; host or cells: primary mouse hepatocytes (Fxr+/+; Fxr-/- as negative control)
T1 sequence (Q60641 1-488): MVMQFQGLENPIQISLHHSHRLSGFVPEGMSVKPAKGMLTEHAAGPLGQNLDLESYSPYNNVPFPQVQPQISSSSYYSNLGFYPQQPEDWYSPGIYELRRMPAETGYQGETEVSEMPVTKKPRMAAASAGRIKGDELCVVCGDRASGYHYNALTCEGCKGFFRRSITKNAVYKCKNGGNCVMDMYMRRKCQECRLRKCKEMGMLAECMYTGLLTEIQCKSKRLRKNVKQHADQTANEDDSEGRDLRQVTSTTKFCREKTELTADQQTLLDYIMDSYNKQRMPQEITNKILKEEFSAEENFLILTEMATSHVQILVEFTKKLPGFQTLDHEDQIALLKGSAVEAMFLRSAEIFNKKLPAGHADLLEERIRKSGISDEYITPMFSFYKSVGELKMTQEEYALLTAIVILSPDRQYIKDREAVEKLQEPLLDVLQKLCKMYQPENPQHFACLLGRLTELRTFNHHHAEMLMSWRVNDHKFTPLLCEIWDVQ
Description: (§1) The PGL4-Shp-TK firefly luciferase construct and human Fxr expression plasmid were provided by Grace L. Guo of Rutgers University. The human Asbt expression plasmid was provided by Paul A. Dawson of Wake Forest University School of Medicine. The plasmids were transfected into cells using X-[…]™ HP DNA Transfection Reagent (Roche). The cells were lysed, and luciferase activities measured with a DUAL-LUCIFERASE™ assay kit (Promega). Firefly luciferase activity was normalized to Renilla luciferase activity.
Primary hepatocytes from Fxr^+/+ and Fxr^−/− mice were transfected with PGL4-Shp-TK firefly luciferase construct and the control plasmid phRL-SV40. After 24 h, the cells were treated with 100 μM taurocholic acid (TCA), TβMCA, or TβMCA with TCA. The cells were lysed, and luciferase activities measured as describe herein. The results are depicted in FIG. 1.

[2] = target: T1, FXR; assay: FXR signaling in the ileum (Shp, Fgf15 mRNA); type: in vivo; conditions: mice treated with antibiotic on HFD for three days; TCA and TβMCA 400 mg/kg each, oral
Description: High-fat diet (HFD) (60% kcal consisting of fat) was purchased from Bioserv. […] Fxr^fl/fl and Fxr^ΔIE (Kim et al., J. Lipid Res. 48:2664-2672, 2007) mice were backcrossed with C57BL/6N mice for over 10 generations. For the antibiotic (the combination of bacitracin, neomycin, and streptomycin) study, male C57BL/6N mice from 6 weeks of age were fed a high-fat diet (“HFD) and administered 0.1% (w/v) of each compound (the combination of bacitracin, neomycin, and streptomycin) in the drinking water. […] For TβMCA in vivo, male C57BL/6N mice from 6 weeks of age were fed a HFD and treated with the antibiotics (0.1% of each compound of bacitracin, neomycin, and streptomycin combination) for 3 days. […] Cumulative food intake and TEEbal were measured for 1 week in vehicle and Gly-MCA-treated mice from 6 to 7 weeks of HFD. TEEbal was measured as previously described (Ravussin et al., Int. J. Obesity 37:399-403, 2013).
The mucosa of intestine was gently scraped and liver was taken and both were flash frozen in liquid nitrogen and stored at −80° C. until RNA was prepared. […] Measured mRNA levels were normalized to those of 18S ribosomal RNA and expressed as fold change relative to those of control group.

[3] = target: T2, human FXR (Homo sapiens, UniProt Q96RI1); assay: PGL4-Shp-TK luciferase assay in Caco-2 cells transfected with human FXR and human ASBT; type: cell-based; conditions: 100 μM TCA
T2 construct: expressed in transfected cells; host or cells: Caco-2
T2 sequence (Q96RI1 1-486): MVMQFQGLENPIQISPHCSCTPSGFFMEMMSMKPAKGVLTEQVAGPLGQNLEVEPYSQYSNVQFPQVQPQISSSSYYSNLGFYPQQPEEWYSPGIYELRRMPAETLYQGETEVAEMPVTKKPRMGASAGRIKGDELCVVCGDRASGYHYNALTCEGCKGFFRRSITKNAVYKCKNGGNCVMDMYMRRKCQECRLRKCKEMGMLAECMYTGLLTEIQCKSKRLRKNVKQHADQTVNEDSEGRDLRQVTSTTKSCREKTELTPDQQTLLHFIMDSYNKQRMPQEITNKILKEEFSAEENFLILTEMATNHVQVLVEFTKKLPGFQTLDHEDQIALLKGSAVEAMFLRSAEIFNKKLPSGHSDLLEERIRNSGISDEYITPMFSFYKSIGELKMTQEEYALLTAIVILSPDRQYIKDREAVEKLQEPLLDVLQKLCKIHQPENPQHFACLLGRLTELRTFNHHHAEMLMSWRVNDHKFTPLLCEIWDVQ
Description: as §1
Caco-2 cells were transfected with PGL4-Shp-TK firefly luciferase construct, the control plasmid phRL-SV40, and human FXR and human ASBT expression plasmids. After 24 h, the cells were treated with 100 μM TCA, TβMCA, or TβMCA with […] 100 μM TCA. The cells were lysed, and luciferase activities measured as describe herein. The results are depicted in FIG. 2.

[4] = target: T3, human FXR (Homo sapiens, UniProt Q96RI1); assay: human FXR competition assay (GAL4-FXR chimeric receptor luciferase, HEK293T); type: cell-based; conditions: in the presence of GW4064
T3 construct: expressed in transfected cells; host or cells: HEK293T
T3 sequence (Q96RI1 262-486 limits assumed): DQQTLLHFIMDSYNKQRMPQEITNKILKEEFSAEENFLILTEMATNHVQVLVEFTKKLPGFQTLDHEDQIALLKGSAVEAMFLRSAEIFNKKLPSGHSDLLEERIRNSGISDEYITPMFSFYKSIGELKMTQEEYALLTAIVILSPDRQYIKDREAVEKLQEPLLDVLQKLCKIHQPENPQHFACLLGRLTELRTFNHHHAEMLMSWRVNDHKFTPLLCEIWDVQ
Description: Luciferase detection was conducted using the Dual Luciferase Reporter Assay kit (Promega Corp., Madison, Wis.) and a Tecan GeniosPro luminescent plate reader (Research Triangle Park, N.C.).
Luciferase detection was conducted using the Dual Luciferase Reporter Assay kit (Promega; Madison, Wis.) and a Tecan GeniosPro™ luminescent plate reader (Research Triangle Park, N.C.).

## C[C@H](CCC(=O)NCCS(=O)(=O)O)[C@H]1CC[C@H]2[C@@H]3[C@@H](O)[C@@H](O)[C@@H]4C[C@H](O)CC[C@]4(C)[C@H]3CC[C@]12C [TβMCA, tauro-β-muricholic acid]
[1]
  FXR activation by TCA (luciferase activity): antagonizes farnesoid X receptor (FXR) activation; also recorded: antagonized FXR activation by TCA
[2]
  Shp and Fgf15 induction by the FXR agonist TCA in the ileum: significantly blunted
[3]
  FXR activation by TCA (luciferase activity): antagonizes FXR activation; also recorded: antagonized FXR activation by TCA
[4]
  FXR activity induced by synthetic agonist GW4064 (luciferase, normalized to Renilla): inhibited FXR
